Earlier results in US20180016637A1, “METHOD OF EVALUATING THE RESPONSE OF ATAXIA TELANGIECTASIA PATIENTS TO GLUCOCORTICOIDS TREATMENT” (EryDel S.p.A., priority 2015, published 2018).

Test system: lymphoblastoid cell lines from lymphocytes of A-T patients

Compound: C[C@@H]1C[C@H]2[C@@H]3CCC4=CC(=O)C=C[C@]4(C)[C@@]3(F)[C@@H](O)C[C@]2(C)[C@@]1(O)C(=O)COP(=O)(O)O [Dexamethasone sodium phosphate]
- transcript induced in vitro: a transcript of about 1582 bp denominated ATMdexa1
